From patent US10308652B2, “Tricyclic heterocyclic compounds useful as inhibitors of TNF” (BRISTOL-MYERS SQUIBB COMPANY, priority 2015, dated 2019)

Molecular target: TNFα (Homo sapiens (Human), UniProt P01375)
Assay: TNF induced HEK-Blue assay
Format: cell-based
Details: TNFα 0.5 ng/ml; HEK-Blue-CD40L cells, NF-κB-driven secreted alkaline phosphatase reporter; 18 h
Method: TNF or CD40L-induced HEK-Blue Assay Test compounds serially diluted in DMSO were plated in an assay plate (Labcyte, Cat. #LP-0200) at final concentrations ranging from 0.004 μM to 25μM. TNFα (final concentration 0.5 ng/ml) or CD4OL (final concentration 30 ng/ml) in assay buffer [DMEM, 4.5 g/l glucose (Gibco, Cat. 21063-029), 10% FBS (Sigma, F4135), 1% Penicillin-Streptomycin (Gibco, Cat. 15140-122), 1% Anti-Anti (Gibco, Cat. 15240-112) and 2 mM L-glutamine (Gibco, Cat. 25030-081)] was then added to the assay plate. After a 30 minute pre-incubation at 37° C. and 5% CO2, HEK-Blue-CD40L cells (InvivoGen, Cat. Code hkb-cd40) containing a NF-κB-driven secreted alkaline phosphatase reporter gene were seeded into the assay plate at a density of 20,000 cells per well. This plate was then incubated for 18 h at 37° C. and 5% CO2. Secreted alkaline phosphatase expression was measured using QUANTI-Blue (InvivoGen, Cat. Code rep-qb1) according to manufacturer's specifications and the assay plate was read on a PerkinElmer Envision at 620 nm. Inhibition data for the test compound over a range of concentrations was plotted as percentage inhibition of the test compound (100%=maximum inhibition). IC50 values were determined after correcting for background [(sample read−mean of low control)/(mean of high control−mean of low control)] where by the low control is DMSO without stimulation and high control is DMSO with stimulation. The IC50 is defined as the concentration of test compound which produces 50% inhibition and was quantified using the 4 parameter logistic equation to fit the data.

Sequence of TNFα (P01375 77-233): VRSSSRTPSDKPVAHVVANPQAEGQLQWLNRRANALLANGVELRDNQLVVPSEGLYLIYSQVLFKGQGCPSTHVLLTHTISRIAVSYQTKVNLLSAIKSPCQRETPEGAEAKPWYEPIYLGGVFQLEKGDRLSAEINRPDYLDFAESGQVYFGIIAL

| IC50 [nM] | Molecule |
| --- | --- |
| 1000 to 10000 | CC(C)(O)c1ccc(-c2ccc3nc4c(n3n2)C(c2ccccc2OC(F)F)OCC4(O)c2ccncc2)cc1 (stereo not shown) [Example 60, 9-(2-(Difluoromethoxy)phenyl)-2-(4-(2-hydroxypropan-2-yl)phenyl)-6-(pyridin-4-yl)-6,9-dihydro-7H-pyrano[4′,3′:4,5]imidazo[1,2-b]pyridazin-6-ol] |
| < 1000 | CC(C)(O)c1ccc(-c2ccc3nc4c(n3n2)C(c2ccccc2OC(F)F)OCC4)cc1 (stereo not shown) [Example 62, 2-(4-(9-(2-(Difluoromethoxy)phenyl)-7,9-dihydro-6H-pyrano[4′,3′:4,5]imidazo[1,2-b]pyridazin-2-yl)phenyl)propan-2-ol] |
| < 1000 | CC(C)(O)c1ncc(-c2ccc3nc4c(n3n2)C(c2ccccc2OC(F)F)OCC4)cn1 (stereo not shown) [Example 63, 2-(5-(9-(2-(Difluoromethoxy)phenyl)-7,9-dihydro-6H-pyrano[4′,3′:4,5]imidazo[1,2-b]pyridazin-2-yl)pyrimidin-2-yl)propan-2-ol] |
| 1000 to 10000 | Cn1cc(-c2ccc3nc4c(n3n2)C(c2ccccc2OC(F)F)OCC4)cn1 (stereo not shown) [Example 64, 9-(2-(Difluoromethoxy)phenyl)-2-(1-methyl-1H-pyrazol-4-yl)-7,9-dihydro-6H-pyrano[4′,3′:4,5]imidazo[1,2-b]pyridazine] |

The remaining lines, values behind:

| Molecule | IC50 [nM] |
| --- | --- |
| CC(C)(O)c1ccc(-c2ccc3nc4c(n3n2)C(c2ccccc2OC(F)(F)F)NCC4O)cc1 (stereo not shown) [Example 26, 2-(4-(2-hydroxypropan-2-yl)phenyl)-9-(2-(trifluoromethoxy)phenyl)-6,7,8,9-tetrahydropyrido [4′,3′:4,5]imidazo[1,2-b]pyridazin-6-ol] | < 1000 |
| CC(C)(O)c1ccc(-c2ccc3nc4c(n3n2)C(c2ccccc2OC(F)F)OCC4(C)O)cc1 (stereo not shown) [Example 59, 9-(2-(Difluoromethoxy)phenyl)-2-(4-(2-hydroxypropan-2-yl)phenyl)-6-methyl-6,9-dihydro-7H-pyrano[4′,3′:4,5]imidazo[1,2-b]pyridazin-6-ol] | 1000 to 10000 |
| (+/−)-cis-9-(2-(difluoromethoxy)phenyl)-2-(4-(2-hydroxybutan-2-yl)phenyl)-6,7,8,9-tetrahydropyrido[4′,3′:4,5]imidazo[1,2-b]pyridazin-6-ol [Example 50] | 1000 to 10000 |
| (+/−)-cis-9-(2-(difluoromethoxy)phenyl)-2-(4-(3-hydroxypentan-3-yl)phenyl)-6,7,8,9-tetrahydropyrido[4′,3′:4,5]imidazo[1,2-b]pyridazin-6-ol [Example 49] | 1000 to 10000 |
| (+/−)-cis-9-(2-(difluoromethoxy)phenyl)-2-(4-morpholinophenyl)-6,7,8,9-tetrahydropyrido[4′,3′:4,5]imidazo[1,2-b]pyridazin-6-ol [Example 45] | 1000 to 10000 |
| (+/−)-cis-9-(4-fluoro-2-methylphenyl)-2-(4-(2-hydroxypropan-2-yl)phenyl)-6,7,8,9-tetrahydropyrido [4′,3′:4,5]imidazo[1,2-b]pyridazin-6-ol [Example 43] | 1000 to 10000 |
| (+/−)-trans-9-(2,5-dimethylphenyl)-2-(4-(2-hydroxypropan-2-yl)phenyl)-6,7,8,9-tetrahydropyrido[4′,3′:4,5]imidazo[1,2-b]pyridazin-6-ol [Example 53] | 1000 to 10000 |
| (+/−)-trans-9-(2-(difluoromethoxy)phenyl)-2-(4-(2-hydroxy-2-methylpropoxy)phenyl)-6,7,8,9-tetrahydropyrido[4′,3′:4,5]imidazo[1,2-b]pyridazin-6-ol [Example 52] | 1000 to 10000 |
| (+/−)-trans-9-(4-fluoro-2-methylphenyl)-2-(4-(2-hydroxypropan-2-yl)phenyl)-6,7,8,9-tetrahydropyrido[4′,3′:4,5]imidazo[1,2-b]pyridazin-6-ol [Example 44] | < 1000 |
